Measurements as given in paper PMC5601359 (Journal of Medicinal Chemistry, 2017).
Like-named read-outs stand apart in the source and are kept apart here.

What was measured:
HIV-1 IN [1] = biological target: T1, HIV-1 IN (Human immunodeficiency virus type 1 group M subtype B, UniProt P12497); experiment: in vitro IN assay, 3′-processing; type: biochemical
[2] = tested on: HIV-1 vector carrying N155H IN mutant; conditions: cited from earlier work; for FC, fold change relative to WT, N155H: EC50 of mutant/EC50 of WT; for EC50: read-out: EC50 N155H, HOS cells, vector harboring N155H IN
[3] = tested on: human osteosarcoma (HOS) cells; conditions: 50% reduction in the level of ATP in HOS cells; cited from earlier work
[4] = tested on: HIV-1 vector carrying WT IN; conditions: read-out: EC50 WT; HOS cells, vector harboring WT IN; cited from earlier work
[5] = tested on: HIV-1 vector carrying G140S/Q148H IN mutant; conditions: cited from earlier work; for FC, fold change relative to WT, G140S/Q148H: EC50 of mutant/EC50 of WT; for EC50: read-out: EC50 G140S/Q148H, HOS cells, vector harboring G140S/Q148H IN
[6] = tested on: HIV-1 vector carrying Y143R IN mutant; conditions: cited from earlier work; for FC, fold change relative to WT, Y143R: EC50 of mutant/EC50 of WT; for EC50: read-out: EC50 Y143R, HOS cells, vector harboring Y143R IN
[7] = tested on: HIV-1 vector carrying G140S/Q148H IN mutant; experiment: single-round HIV-1 infectivity assay, vector with G140S/Q148H IN; type: cell-based; conditions: for FC, fold change relative to WT, G140S/Q148H: EC50 of mutant/EC50 of WT; for EC50: Human immunodeficiency virus 1, HOS, read-out: EC50 G140S/Q148H
[8] = tested on: HIV-1 vector carrying N155H IN mutant; experiment: single-round HIV-1 infectivity assay, vector with N155H IN; type: cell-based; conditions: for FC, fold change relative to WT, N155H: EC50 of mutant/EC50 of WT; for EC50: Human immunodeficiency virus 1, HOS, read-out: EC50 N155H; for fold improvement relative to DTG, N155H: EC50 of compound/EC50 of DTG
[9] = tested on: HIV-1 vector carrying Y143R IN mutant; experiment: single-round HIV-1 infectivity assay, vector with Y143R IN; type: cell-based; conditions: for FC, fold change relative to WT, Y143R: EC50 of mutant/EC50 of WT; for EC50: Human immunodeficiency virus 1, HOS, read-out: EC50 Y143R
HIV-1 IN [10] = biological target: T1, HIV-1 IN; experiment: in vitro IN assay, strand transfer; type: biochemical
in vitro = conditions: human
[11] = tested on: HIV-1 vector carrying G118R IN mutant; experiment: single-round HIV-1 infectivity assay, vector with G118R IN; type: cell-based; conditions: EC50 of compound/EC50 of DTG
[12] = tested on: HIV-1 vector carrying E92Q IN mutant; experiment: single-round HIV-1 infectivity assay, vector with E92Q IN; type: cell-based; conditions: EC50 of compound/EC50 of DTG
[13] = tested on: HIV-1 vector carrying H51Y IN mutant; experiment: single-round HIV-1 infectivity assay, vector with H51Y IN; type: cell-based; conditions: EC50 of compound/EC50 of DTG
[14] = tested on: HIV-1 vector carrying H51Y/R263K IN mutant; experiment: single-round HIV-1 infectivity assay, vector with H51Y/R263K IN; type: cell-based; conditions: EC50 of compound/EC50 of DTG
[15] = tested on: HIV-1 vector carrying WT IN; experiment: single-round HIV-1 infectivity assay, vector with WT IN; type: cell-based; conditions: EC50 of compound/EC50 of DTG
[16] = tested on: HIV-1 vector carrying T66I IN mutant; experiment: single-round HIV-1 infectivity assay, vector with T66I IN; type: cell-based; conditions: EC50 of compound/EC50 of DTG
[17] = tested on: HIV-1 vector carrying R263K IN mutant; experiment: single-round HIV-1 infectivity assay, vector with R263K IN; type: cell-based; conditions: EC50 of compound/EC50 of DTG
[18] = tested on: HIV-1 vector carrying R263K IN mutant; conditions: cited from earlier work; for EC50: read-out: EC50 R263K, vector harboring R263K IN
[19] = tested on: HIV-1 vector carrying E92Q IN mutant; conditions: cited from earlier work; for EC50: read-out: EC50 E92Q, vector harboring E92Q IN
[20] = tested on: HIV-1 vector carrying H51Y/R263K IN mutant; conditions: cited from earlier work; for EC50: read-out: EC50 H51Y/R263K, vector harboring H51Y/R263K IN
[21] = tested on: HIV-1 vector carrying G118R IN mutant; conditions: cited from earlier work; for EC50: read-out: EC50 G118R, vector harboring G118R IN
[22] = tested on: HIV-1 vector carrying T66I IN mutant; conditions: cited from earlier work; for EC50: read-out: EC50 T66I, vector harboring T66I IN
[23] = tested on: HIV-1 vector carrying H51Y IN mutant; conditions: cited from earlier work; for EC50: read-out: EC50 H51Y, vector harboring H51Y IN

COC(=O)CNc1c(C(=O)NCc2ccc(F)cc2F)c(=O)n(O)c2nc(N3CCCCC3)ccc12 [5h, Methyl 2-((3-((2,4-Difluorobenzyl)carbamoyl)-1-hydroxy-2-oxo-7-(piperidin-1-yl)-1,2-dihydro-1,8-naphthyridin-4-yl)amino)acetate]
IC50 (HIV-1 IN [1]): > 333000 nM

COC(=O)CNc1c(C(=O)NCc2ccc(F)cc2F)c(=O)n(O)c2nc(N3CCOCC3)ccc12 [5i, Methyl 2-((3-((2,4-Difluorobenzyl)carbamoyl)-1-hydroxy-7-morpholino-2-oxo-1,2-dihydro-1,8-naphthyridin-4-yl)amino)acetate]
IC50 (HIV-1 IN [1]): > 333000 nM

O=C(NCc1ccc(F)cc1F)c1c(O)c2cccnc2n(O)c1=O [5′a]
FC, fold change relative to WT, N155H [2]: 5 × | EC50 [2]: 31 ± 8 nM | CC50 [3]: 137000 ± 20000 nM | EC50 [4]: 6.2 ± 2.9 nM | FC, fold change relative to WT, G140S/Q148H [5]: 50 × | EC50 [5]: 308 ± 125 nM | FC, fold change relative to WT, Y143R [6]: 2 × | EC50 [6]: 11 ± 2 nM

Nc1c(C(=O)NCc2ccc(F)cc2F)c(=O)n(O)c2ncccc12 [5′d]
CC50 [3]: > 250000 nM | EC50 [4]: 1.1 ± 0.7 nM

COC(=O)CNc1c(C(=O)NCc2ccc(F)cc2F)c(=O)n(O)c2ncccc12 [5′g]
FC, fold change relative to WT, G140S/Q148H [7]: 9 × | EC50 [7]: 36 ± 16 nM | FC, fold change relative to WT, N155H [8]: 5 × | EC50 [8]: 19 ± 7 nM | FC, fold change relative to WT, Y143R [9]: 1 × | EC50 [9]: 4.6 ± 2.2 nM

CC(=O)OCCCc1cnc2c(c1)c(N)c(C(=O)NCc1ccc(F)cc1F)c(=O)n2O [6b, 3-(5-Amino-6-((2,4-difluorobenzyl)carbamoyl)-8-hydroxy-7-oxo-7,8-dihydro-1,8-naphthyridin-3-yl)propyl Acetate]
IC50 (HIV-1 IN [10]; ST IC50, as stated in text): ≤ 10 nM

Nc1c(C(=O)NCc2ccc(F)cc2F)c(=O)n(O)c2ncc(CCCCCCOC(=O)c3ccccc3)cc12 [6c, 6-(5-Amino-6-((2,4-difluorobenzyl)carbamoyl)-8-hydroxy-7-oxo-7,8-dihydro-1,8-naphthyridin-3-yl)hexyl Benzoate]
IC50 (HIV-1 IN [10]; in vitro IC50 ST, gel-based protocol, Mg2+ cofactor): 3300 ± 600 nM | FC, fold change relative to WT, G140S/Q148H [7]: 4 × | EC50 [7]: 21 ± 7.8 nM | FC, fold change relative to WT, N155H [8]: 1 × | EC50 [8]: 5.4 ± 1.9 nM | FC, fold change relative to WT, Y143R [9]: 0.7 × | EC50 [9]: 3.5 ± 1.2 nM | CC50 (in vitro): 14400 ± 4800 nM

Nc1c(C(=O)NCc2ccc(F)cc2F)c(=O)n(O)c2ncc(CCC(=O)O)cc12 [6i, 3-(5-Amino-6-((2,4-difluorobenzyl)carbamoyl)-8-hydroxy-7-oxo-7,8-dihydro-1,8-naphthyridin-3-yl)propanoic Acid]
IC50 (HIV-1 IN [10]; ST IC50, as stated in text): ≤ 10 nM

Nc1c(C(=O)NCc2ccc(F)cc2F)c(=O)n(O)c2ncc(CCC(=O)NCCO)cc12 [6n, 4-Amino-N-(2,4-difluorobenzyl)-1-hydroxy-6-(3-((2-hydroxyethyl)amino)-3-oxopropyl)-2-oxo-1,2-dihydro-1,8-naphthyridine-3-carboxamide]
IC50 (HIV-1 IN [10]; ST IC50, as stated in text): < 10 nM

Nc1c(C(=O)NCc2ccc(F)cc2F)c(=O)n(O)c2ncc(/C=C/C(=O)NCCO)cc12 [6o, (E)-4-Amino-N-(2,4-difluorobenzyl)-1-hydroxy-6-(3-((2-hydroxyethyl)amino)-3-oxoprop-1-en-1-yl)-2-oxo-1,2-dihydro-1,8-naphthyridine-3-carboxamide]
IC50 (HIV-1 IN [10]; ST IC50, as stated in text): < 10 nM

COC(=O)CCc1cnc2c(c1)c(N)c(C(=O)NCc1ccc(F)cc1F)c(=O)n2O [6p, Methyl 3-(5-Amino-6-((2,4-difluorobenzyl)carbamoyl)-8-hydroxy-7-oxo-7,8-dihydro-1,8-naphthyridin-3-yl)propanoate]
IC50 (HIV-1 IN [10]; ST IC50, as stated in text): ≤ 10 nM | fold improvement relative to DTG, G118R [11]: 4.8 ± 1.5 (0.37×) | fold improvement relative to DTG, G140S/Q148H ([7]; EC50 of compound/EC50 of DTG): 5.3 ± 1.8 (0.91×) | fold improvement relative to DTG, E92Q [12]: 2.0 ± 1.1 (0.87×) | fold improvement relative to DTG, H51Y [13]: 0.63 ± 0.30 (0.20×) | fold improvement relative to DTG, N155H [8]: 2.3 ± 0.2 (0.64×) | fold improvement relative to DTG, Y143R ([9]; EC50 of compound/EC50 of DTG): 0.67 ± 0.23 (0.16×) | fold improvement relative to DTG, H51Y/R263K [14]: 2.4 ± 0.8 (0.15×) | fold improvement relative to DTG, WT [15]: 0.67 ± 0.15 (0.42×) | fold improvement relative to DTG, T66I [16]: 0.53 ± 0.06 (0.59×) | fold improvement relative to DTG, R263K [17]: 0.5 ± 0.0 (0.05×)

Nc1c(C(=O)NCc2ccc(F)cc2F)c(=O)n(O)c2ncc(CCCCCO)cc12 [6′b]
fold improvement relative to DTG, G118R [11]: 5.3 ± 1.6 (0.41×) | fold improvement relative to DTG, N155H [8]: 2.4 ± 0.8 (0.67×) | CC50 [3]: > 250000 nM | fold improvement relative to DTG, H51Y/R263K [14]: 2.6 ± 1.4 (0.16×) | fold improvement relative to DTG, WT [15]: 1.3 ± 0.2 (0.81×) | fold improvement relative to DTG, R263K [17]: 2.6 ± 0.1 (0.24×)

C[C@@H]1CCO[C@H]2Cn3cc(C(=O)NCc4ccc(F)cc4F)c(=O)c(O)c3C(=O)N12 [DTG (3), dolutegravir]
EC50 [18]: 11 ± 3 nM | EC50 [2]: 3.6 ± 1.3 nM | CC50 [3]: > 250000 nM | EC50 [4]: 1.6 ± 0.9 nM | EC50 [19]: 2.3 ± 0.4 nM | EC50 [20]: 16 ± 2 nM | EC50 [21]: 13 ± 5 nM | EC50 [22]: 0.9 ± 0.8 nM

COc1cc2c(cc1Cc1cccc(Cl)c1F)c(=O)c(C(=O)O)cn2[C@H](CO)C(C)C [EVG (2), elvitegravir]
FC, fold change relative to WT, R263K ([18]; EC50 of mutant/EC50 of WT): 2 × | EC50 [18]: 10 ± 6 nM | FC, fold change relative to WT, N155H [2]: 14 × | EC50 [2]: 90 ± 18 nM | CC50 [3]: > 250000 nM | EC50 [4]: 6.4 ± 0.8 nM | FC, fold change relative to WT, E92Q ([19]; EC50 of mutant/EC50 of WT): 24 × | EC50 [19]: 154 ± 34 nM | FC, fold change relative to WT, G140S/Q148H [5]: 891 × | EC50 [5]: 5700 ± 1100 nM | FC, fold change relative to WT, H51Y/R263K ([20]; EC50 of mutant/EC50 of WT): 8 × | EC50 [20]: 53 ± 18 nM | FC, fold change relative to WT, H51Y ([23]; EC50 of mutant/EC50 of WT): 0.7 × | EC50 [23]: 4.5 ± 2.1 nM | FC, fold change relative to WT, G118R ([21]; EC50 of mutant/EC50 of WT): 3 × | EC50 [21]: 21 ± 10 nM | FC, fold change relative to WT, Y143R [6]: 1 × | EC50 [6]: 7.9 ± 2.3 nM | FC, fold change relative to WT, T66I ([22]; EC50 of mutant/EC50 of WT): 10 × | EC50 [22]: 66 ± 1 nM

Cc1nnc(C(=O)NC(C)(C)c2nc(C(=O)NCc3ccc(F)cc3)c(O)c(=O)n2C)o1 [RAL (1), raltegravir]
EC50 [18]: 5.7 ± 2.3 nM | CC50 [3]: > 250000 nM | EC50 [4]: 4 ± 2 nM | EC50 [19]: 30 ± 10 nM | EC50 [20]: 6 ± 2.3 nM | EC50 [23]: 3.4 ± 0.2 nM | EC50 [21]: 36 ± 5 nM | EC50 [22]: 2.8 ± 0.4 nM
